≈ marks a conversion by molar mass, not a printed value. Numbered stars: 1 amine (or outer) side, 2 acyl side, 3 side chain; on linkers, the order of the positions; unused ones are H or OH. Bridge positions count the residues as written; N and C are the ends. Square brackets hold non-standard residues; d marks the D form. Peptide text beside a SMILES is read from it. I, II: the chains in the order shown. Actinocin(1to9) = Cc1c2oc3c(C)ccc(C(=O)[*:2])c3nc-2c(C(=O)[*:1])c(N)c1=O; NMeV = CN[C@H](C(=O)O)C(C)C; Sar = CNCC(=O)O
Legend:
Micrococcus luteus = assay: Antimicrobial activity against Micrococcus luteus ML01 assessed as inhibition of bacterial growth incubated for 16 to 18 hrs by broth micro dilution technique; format: functional; settings: time 16-18 hrs
Enterococcus faecium = assay: Antimicrobial activity against Enterococcus faecium ATCC 35682 assessed as inhibition of bacterial growth incubated for 16 to 18 hrs by broth micro dilution technique; format: functional; settings: time 16-18 hrs
Staphylococcus aureus [1] = assay: Antimicrobial activity against Staphylococcus aureus Sau 745524 assessed as inhibition of bacterial growth incubated for 16 to 18 hrs by broth micro dilution technique; format: functional; settings: time 16-18 hrs
A549 = assay: Cytotoxicity against human A549 cells assessed as growth inhibition incubated for 68 hrs by MTT assay; format: functional, cell-based; settings: A549, 68 h
HL-60 = assay: Cytotoxicity against human HL-60 cells assessed as growth inhibition incubated for 68 hrs by MTT assay; format: functional, cell-based; settings: HL-60, 68 h
BEAS-2B = assay: Cytotoxicity against human BEAS-2B cells assessed as growth inhibition incubated for 68 hrs by MTT assay; format: cell-based
HepG2 = assay: Cytotoxicity against human HepG2 cells assessed as growth inhibition incubated for 68 hrs by MTT assay; format: functional, cell-based; settings: HepG2, 68 h
Candida albicans = assay: Antimicrobial activity against Candida albicans assessed as inhibition of bacterial growth incubated for 16 to 18 hrs by broth micro dilution technique; format: functional; settings: time 16-18 hrs
Staphylococcus aureus [2] = assay: Antimicrobial activity against Staphylococcus aureus Sau 991 assessed as inhibition of bacterial growth incubated for 16 to 18 hrs by broth micro dilution technique; format: functional; settings: time 16-18 hrs
Staphylococcus aureus [3] = assay: Antimicrobial activity against Staphylococcus aureus Sau 6917 assessed as inhibition of bacterial growth incubated for 16 to 18 hrs by broth micro dilution technique; format: functional; settings: time 16-18 hrs
Enterococcus faecalis = assay: Antimicrobial activity against Enterococcus faecalis ATCC 29212 assessed as inhibition of bacterial growth incubated for 16 to 18 hrs by broth micro dilution technique; format: functional; settings: time 16-18 hrs
Staphylococcus aureus [4] = assay: Antimicrobial activity against Staphylococcus aureus Sau 718306 assessed as inhibition of bacterial growth incubated for 16 to 18 hrs by broth micro dilution technique; format: functional; settings: time 16-18 hrs
Staphylococcus aureus [5] = assay: Antimicrobial activity against Staphylococcus aureus CCAM 3090 assessed as inhibition of bacterial growth incubated for 16 to 18 hrs by broth micro dilution technique; format: functional; settings: time 16-18 hrs
MCF7 = assay: Cytotoxicity against human MCF7 cells assessed as growth inhibition incubated for 68 hrs by MTT assay; format: functional, cell-based; settings: MCF7, 68 h
RKO = assay: Cytotoxicity against human RKO cells assessed as growth inhibition incubated for 68 hrs by MTT assay; format: functional, cell-based
Staphylococcus aureus [6] = assay: Antimicrobial activity against Staphylococcus aureus Sau 16162 assessed as inhibition of bacterial growth incubated for 16 to 18 hrs by broth micro dilution technique; format: functional; settings: time 16-18 hrs
Staphylococcus aureus [7] = assay: Antimicrobial activity against Staphylococcus aureus Sau 1862 assessed as inhibition of bacterial growth incubated for 16 to 18 hrs by broth micro dilution technique; format: functional; settings: time 16-18 hrs
HeLa = assay: Cytotoxicity against human HeLa cells assessed as growth inhibition incubated for 68 hrs by MTT assay; format: functional, cell-based
Staphylococcus aureus [8] = assay: Antimicrobial activity against Staphylococcus aureus ATCC 29213 assessed as inhibition of bacterial growth incubated for 16 to 18 hrs by broth micro dilution technique; format: functional; settings: time 16-18 hrs
Bacillus thuringiensis = assay: Antimicrobial activity against Bacillus thuringiensis BT01 assessed as inhibition of bacterial growth incubated for 16 to 18 hrs by broth micro dilution technique; format: functional; settings: time 16-18 hrs
L02 = assay: Cytotoxicity against human L02 cells assessed as growth inhibition incubated for 68 hrs by MTT assay; format: cell-based; settings: L02, 68 h

Row | Compound | MIC (Micrococcus luteus) [µg/mL] | MIC (Enterococcus faecium) [µg/mL] | MIC (Staphylococcus aureus [1]) [µg/mL] | IC50 (A549) [nM] | IC50 (HL-60) [nM] | IC50 (BEAS-2B) [nM] | IC50 (HepG2) [nM] | MIC (Candida albicans) [µg/mL] | MIC (Staphylococcus aureus [2]) [µg/mL] | MIC (Staphylococcus aureus [3]) [µg/mL] | MIC (Enterococcus faecalis) [µg/mL] | MIC (Staphylococcus aureus [4]) [µg/mL] | MIC (Staphylococcus aureus [5]) [µg/mL] | IC50 (MCF7) [nM] | IC50 (RKO) [nM] | MIC (Staphylococcus aureus [6]) [µg/mL] | MIC (Staphylococcus aureus [7]) [µg/mL] | IC50 (HeLa) [nM] | MIC (Staphylococcus aureus [8]) [µg/mL] | MIC (Bacillus thuringiensis) [µg/mL] | further results
1 | CC(C)[C@H]1C(=O)O[C@H](C)[C@H](NC(=O)c2c3nc4c(C(=O)N[C@@H]5C(=O)N[C@H](C(C)C)C(=O)N6CCC[C@H]6C(=O)N(C)CC(=O)N(C)[C@@H](C(C)C)C(=O)O[C@@H]5C)ccc(I)c4oc-3cc(=O)c2N)C(=O)N[C@H](C(C)C)C(=O)N2CCC[C@H]2C(=O)N(C)CC(=O)N1C | 0.06 (≈ 0.0443 µM) | 0.5 (≈ 0.369 µM) | 0.5 (≈ 0.369 µM) | 9000 | 70 | 500 | 100 | 0.5 (≈ 0.369 µM) | 1 (≈ 0.739 µM) | 1 (≈ 0.739 µM) | 2 (≈ 1.48 µM) | 1 (≈ 0.739 µM) | 1 (≈ 0.739 µM) | 2000 | 100 | 4 (≈ 2.96 µM) | 2 (≈ 1.48 µM) | 4400 | 1 (≈ 0.739 µM) | 0.25 (≈ 0.185 µM) | IC50 (L02): 1700 nM
2 | CC(C)[C@H]1C(=O)O[C@H](C)[C@H](NC(=O)c2c3nc4c(C(=O)N[C@@H]5C(=O)N[C@H](C(C)C)C(=O)N6CCC[C@H]6C(=O)N(C)CC(=O)N(C)[C@@H](C(C)C)C(=O)O[C@@H]5C)cccc4oc-3c(I)c(=O)c2N)C(=O)N[C@H](C(C)C)C(=O)N2CCC[C@H]2C(=O)N(C)CC(=O)N1C | 0.06 (≈ 0.0443 µM) | 2 (≈ 1.48 µM) | 2 (≈ 1.48 µM) | 34000 | 400 | 12400 | 3300 | 2 (≈ 1.48 µM) | 4 (≈ 2.96 µM) | 4 (≈ 2.96 µM) | 4 (≈ 2.96 µM) | 2 (≈ 1.48 µM) | 4 (≈ 2.96 µM) | 25700 | 3300 | 8 (≈ 5.91 µM) | 4 (≈ 2.96 µM) | 10000 | 4 (≈ 2.96 µM) | 1 (≈ 0.739 µM) | IC50 (L02): 20900 nM
3 | COc1c2oc3c(OC)ccc(C(=O)N[C@@H]4C(=O)N[C@H](C(C)C)C(=O)N5CCC[C@H]5C(=O)N(C)CC(=O)N(C)[C@@H](C(C)C)C(=O)O[C@@H]4C)c3nc-2c(C(=O)N[C@@H]2C(=O)N[C@H](C(C)C)C(=O)N3CCC[C@H]3C(=O)N(C)CC(=O)N(C)[C@@H](C(C)C)C(=O)O[C@@H]2C)c(N)c1=O | 0.5 (≈ 0.388 µM) | 8 (≈ 6.21 µM) | 2 (≈ 1.55 µM) | 18500 | 200 | 2700 | 4000 | 16 (≈ 12.4 µM) | 2 (≈ 1.55 µM) | 2 (≈ 1.55 µM) | 8 (≈ 6.21 µM) | 2 (≈ 1.55 µM) | 2 (≈ 1.55 µM) | 4100 | 1700 | 8 (≈ 6.21 µM) | 2 (≈ 1.55 µM) | 4300 | 2 (≈ 1.55 µM) | 4 (≈ 3.11 µM) | IC50 (L02): 3900 nM
4 | CC(C)[C@H]1C(=O)O[C@H](C)[C@H](NC(=O)c2c3nc4c(C(=O)N[C@@H]5C(=O)N[C@H](C(C)C)C(=O)N6CCC[C@H]6C(=O)N(C)CC(=O)N(C)[C@@H](C(C)C)C(=O)O[C@@H]5C)ccc(Br)c4oc-3c(Br)c(=O)c2N)C(=O)N[C@H](C(C)C)C(=O)N2C[C@@H](O)C[C@H]2C(=O)N(C)CC(=O)N1C | 0.5 (≈ 0.357 µM) | 2 (≈ 1.43 µM) | 16 (≈ 11.4 µM) | 53700 | 200 | 900 | 3000 | 8 (≈ 5.71 µM) | 16 (≈ 11.4 µM) | 32 (≈ 22.8 µM) | 32 (≈ 22.8 µM) | 16 (≈ 11.4 µM) | 16 (≈ 11.4 µM) | 2900 | 1300 | 16 (≈ 11.4 µM) | 16 (≈ 11.4 µM) | 2400 | 16 (≈ 11.4 µM) | 2 (≈ 1.43 µM) | IC50 (L02): 3100 nM
5 | CC(C)[C@H]1C(=O)O[C@H](C)[C@H](NC(=O)c2c3nc4c(C(=O)N[C@@H]5C(=O)N[C@H](C(C)C)C(=O)N6CCC[C@H]6C(=O)N(CO)CC(=O)N(C)[C@@H](C(C)C)C(=O)O[C@@H]5C)ccc(Br)c4oc-3c(Br)c(=O)c2N)C(=O)N[C@H](C(C)C)C(=O)N2CCC[C@H]2C(=O)N(C)CC(=O)N1C | 2 (≈ 1.43 µM) | 4 (≈ 2.85 µM) | 32 (≈ 22.8 µM) | 37800 | > 50000 | 5800 | > 50000 | 8 (≈ 5.71 µM) | 32 (≈ 22.8 µM) | 32 (≈ 22.8 µM) | 32 (≈ 22.8 µM) | 16 (≈ 11.4 µM) | 32 (≈ 22.8 µM) | 12800 | 24600 | 32 (≈ 22.8 µM) | 32 (≈ 22.8 µM) | > 50000 | 32 (≈ 22.8 µM) | 4 (≈ 2.85 µM) | IC50 (L02): 13300 nM
6 | CC(C)[C@H]1C(=O)O[C@H](C)[C@H](NC(=O)c2c3nc4c(C(=O)N[C@@H]5C(=O)N[C@H](C(C)C)C(=O)N6CCC[C@H]6C(=O)N(C)CC(=O)N(C)[C@@H](C(C)C)C(=O)O[C@@H]5C)ccc(I)c4oc-3c(I)c(=O)c2N)C(=O)N[C@H](C(C)C)C(=O)N2CCC[C@H]2C(=O)N(C)CC(=O)N1C | < 0.06 | 0.06 (≈ 0.0406 µM) | 2 (≈ 1.35 µM) | 5000 | 50 | 500 | 100 | 0.13 (≈ 0.0879 µM) | 2 (≈ 1.35 µM) | 4 (≈ 2.7 µM) | 2 (≈ 1.35 µM) | 2 (≈ 1.35 µM) | 4 (≈ 2.7 µM) | 1100 | 200 | 4 (≈ 2.7 µM) | 2 (≈ 1.35 µM) | 200 | 4 (≈ 2.7 µM) | 0.13 (≈ 0.0879 µM) | IC50 (L02): 1500 nM
7 | CC(C)[C@H]1C(=O)O[C@H](C)[C@H](NC(=O)c2c3nc4c(C(=O)N[C@@H]5C(=O)N[C@H](C(C)C)C(=O)N6CCC[C@H]6C(=O)N(C)CC(=O)N(C)[C@@H](C(C)C)C(=O)O[C@@H]5C)ccc(Br)c4oc-3c(Br)c(=O)c2N)C(=O)N[C@H](C(C)C)C(=O)N2CCC[C@H]2C(=O)N(C)CC(=O)N1C | < 0.06 | 0.13 (≈ 0.0939 µM) | 8 (≈ 5.78 µM) | 1100 | 40 | 2200 | 2400 | 16 (≈ 11.6 µM) | 8 (≈ 5.78 µM) | 16 (≈ 11.6 µM) | 16 (≈ 11.6 µM) | 8 (≈ 5.78 µM) | 8 (≈ 5.78 µM) | 1500 | 1500 | 16 (≈ 11.6 µM) | 8 (≈ 5.78 µM) | 6200 | 8 (≈ 5.78 µM) | 0.25 (≈ 0.18 µM) | IC50 (L02): 17600 nM
8 | Cc1c2oc3c(C)ccc(C(=O)N[C@@H]4C(=O)N[C@H](C(C)C)C(=O)N5CCC[C@H]5C(=O)N(C)CC(=O)N(C)[C@@H](C(C)C)C(=O)O[C@@H]4C)c3nc-2c(C(=O)N[C@@H]2C(=O)N[C@H](C(C)C)C(=O)N3CCC[C@H]3C(=O)N(C)CC(=O)N(C)[C@@H](C(C)C)C(=O)O[C@@H]2C)c(N)c1=O [DACTINOMYCIN] (I: T[dV]P[Sar][NMeV] / II: T[dV]P[Sar][NMeV]; ester I:1-I:C, II:1-II:C; linker I:N-II:N via Actinocin(1to9)) | < 0.06 | 0.13 (≈ 0.104 µM) | 0.06 (≈ 0.0478 µM) | 3800 | 20 | 700 | 10 | < 0.06 | 0.06 (≈ 0.0478 µM) | 0.06 (≈ 0.0478 µM) | < 0.06 | 0.06 (≈ 0.0478 µM) | 0.06 (≈ 0.0478 µM) | 200 | 30 | 1 (≈ 0.797 µM) | 0.06 (≈ 0.0478 µM) | 120 | 0.06 (≈ 0.0478 µM) | 0.06 (≈ 0.0478 µM) | IC50 (L02): 500 nM

Source: ChEMBL document CHEMBL4828714, “Mutasynthesis of Antibacterial Halogenated Actinomycin Analogues” (J Nat Prod, 2021)
